Where two headings read alike, the source gives them in different places.
Tested on: Dengue-2 (Strain New Guinea C)
Assay: viral yield assay against Dengue-2 in Vero cells
Format: cell-based
Details: Dengue virus; for EC90: read-out: EC90 Yield Den-2
Method: Compounds that were active in the primary screen were also tested for activity in viral yield assays. […] Vero cells in 12-well plates were infected with dengue-2 virus at a multiplicity of infection (MOI) of 0.1, treated with compound (or DMSO as a control), incubated at 37° C., harvested 48 hours post infection and titered on Vero cells as described above. The EC50 was calculated through ExcelFit. Those compounds with activity below 1 μM are indicated with “A”, those with activity between 1 and 10 μM are indicated with “B”, those with activity between 10 and 25 μM with “C”, and those with activity above 25 μM are indicated with “D”.

[1] = Vero cells, MOI 0.1, harvested 48 hours post infection, read-out: Activity (anti-dengue 2 viral activity, EC50)
[2] = viral yield assay, Vero cells, read-out: EC50 Yield Den-2

CCN(CC)S(=O)(=O)c1ccc(NC(=O)Cn2cnc3sccc3c2=O)cc1 [Compound 5, N-(4-Diethylsulfamoyl-phenyl)-2-(4-oxo-4H-thieno[2,3-d]pyrimidin-3-yl)-acetamide]
EC50 [1]: 1 to 10 µM

CCN(CC)S(=O)(=O)c1ccc(NC(=O)Cn2cnc3sc(C)c(C)c3c2=O)cc1 [Compound 10, N-(4-Diethylsulfamoyl-phenyl)-2-(5,6-dimethyl-4-oxo-4H-thieno[2,3-d]pyrimidin-3-yl)-acetamide]
EC50 [1]: 1 to 10 µM
EC50 [2]: 1.25 µM
EC90 (viral yield assay, Vero cells): > 50 µM

CCc1cc2c(=O)n(CC(=O)Nc3ccc(S(=O)(=O)N(CC)CC)cc3)cnc2s1 [Compound 11, N-(4-Diethylsulfamoyl-phenyl)-2-(6-ethyl-4-oxo-4H-thieno[2,3-d]pyrimidin-3-yl)-acetamide]
EC50 [1]: 1 to 10 µM
EC50 [2]: 4.9 µM
EC90 (viral yield assay, Vero cells): > 50 µM

CCN(CC)S(=O)(=O)c1ccc2c(c1)CCN2C(=O)Cn1cnc2ccccc2c1=O [Compound 17, 1-[2-(4-Oxo-4H-quinazolin-3-yl)-acetyl]-2,3-dihydro-1H-indole-5-sulfonic acid diethylamide]
EC50 [1]: 1 to 10 µM
EC50 [2]: 5.1 µM
EC90 (viral yield assay, Vero cells): 12.1 µM

CC1CCCC(C)N1S(=O)(=O)c1ccc(NC(=O)Cn2cnc3ccccc3c2=O)cc1 (stereo not drawn) [Compound 18, N-[4-(2,6-Dimethyl-piperidine-1-sulfonyl)-phenyl]-2-(4-oxo-4H-quinazolin-3-yl)-acetamide]
EC50 [1]: 1 to 10 µM

CC1CC(C)CN(S(=O)(=O)c2ccc(NC(=O)Cn3cnc4ccccc4c3=O)cc2)C1 (stereo not drawn) [Compound 19, N-[4-(3,5-Dimethyl-piperidine-1-sulfonyl)-phenyl]-2-(4-oxo-4H-quinazolin-3-yl)-acetamide]
EC50 [1]: 1 to 10 µM

CCN(CC)S(=O)(=O)c1ccc(OC)c(NC(=O)Cn2nnc3ccccc3c2=O)c1 [Compound 20, N-(5-Diethylsulfamoyl-2-methoxy-phenyl)-2-(4-oxo-4H-benzo[d][1,2,3]triazin-3-yl)-acetamide]
EC50 (Vero, read-out: EC50 Yield Den-2): 1.3 µM
EC90 (Vero): 20 µM
EC50 [1]: 1 to 10 µM

CCN(CC)S(=O)(=O)c1ccc(NC(=O)Cn2cnc3ccsc3c2=O)cc1 [Compound 22, N-(4-Diethylsulfamoyl-phenyl)-2-(4-oxo-4H-thieno[3,2-d]pyrimidin-3-yl)-acetamide]
EC50 [1]: 10 to 25 µM

CCN(CC)S(=O)(=O)c1ccc(NC(=O)Cn2cnc3cc(Cl)ccc3c2=O)cc1 [Compound 23, 2-(7-Chloro-4-oxo-4H-quinazolin-3-yl)-N-(4-diethylsulfamoyl-phenyl)-acetamide]
EC50 [1]: 10 to 25 µM

CCN(CC)S(=O)(=O)c1ccc(NC(=O)Cn2cnc3c(oc4ccccc43)c2=O)cc1 [Compound 24, N-(4-Diethylsulfamoyl-phenyl)-2-(4-oxo-4H-benzo [4,5]furo[3,2-d]pyrimidin-3-yl)-acetamide]
EC50 [1]: 10 to 25 µM

CCN(CC)S(=O)(=O)c1ccc(OC(C)C)c(NC(=O)CCn2nnc3ccccc3c2=O)c1 [Compound 25, N-(5-Diethylsulfamoyl-2-isopropoxy-phenyl)-3-(4-oxo-4H-benzo[d][1,2,3]triazin-3-yl)-propionamide]
EC50 [1]: 10 to 25 µM

CCN(CC)S(=O)(=O)c1ccc(NC(=O)Cn2cnc3c(C)cccc3c2=O)cc1 [Compound 26, N-(4-Diethylsulfamoyl-phenyl)-2-(8-methyl-4-oxo-4H-quinazolin-3-yl)-acetamide]
EC50 [1]: 10 to 25 µM

CCN(CC)S(=O)(=O)c1ccc(OC)c(NC(=O)CCn2nnc3ccccc3c2=O)c1 [Compound 27, N-(5-Diethylsulfamoyl-2-methoxy-phenyl)-3-(4-oxo-4H-benzo[d][1,2,3]triazin-3-yl)-propionamide]
EC50 [1]: 10 to 25 µM

CC1CCCC(C)N1S(=O)(=O)c1ccc(NC(=O)Cn2cnc3sccc3c2=O)cc1 (stereo not drawn) [Compound 28, N-[4-(2,6-Dimethyl-piperidine-1-sulfonyl)-phenyl]-2-(4-oxo-4H-thieno[2,3-d]pyrimidin-3-yl)-acetamide]
EC50 [1]: 10 to 25 µM

CCN(CC(=O)Nc1ccc(S(=O)(=O)N(CC)CC)cc1)Cc1nc2ccccc2c(=O)[nH]1 [Compound 29, N-(4-Diethylsulfamoyl-phenyl)-2-[ethyl-(4-oxo-3,4-dihydro-quinazolin-2-ylmethyl)-amino]-acetamide]
EC50 [1]: 10 to 25 µM

O=C(Cn1cnc2ccccc2c1=O)Nc1ccc(S(=O)(=O)NCC(F)(F)F)cc1 [Compound 30, 2-(4-Oxo-4H-quinazolin-3-yl)-N-[4-(2,2,2-trifluoro-ethylsulfamoyl)-phenyl]-acetamide]
EC50 [1]: 10 to 25 µM

O=C(Cn1cnc2ccccc2c1=O)Nc1ccc(S(=O)(=O)N2CCCC2)cc1 [Compound 31, 2-(4-Oxo-4H-quinazolin-3-yl)-N-[4-(pyrrolidine-1-sulfonyl)-phenyl]-acetamide]
EC50 [1]: > 25 µM

O=C(Cn1cnc2ccccc2c1=O)Nc1ccc(S(=O)(=O)Nc2nccs2)cc1 [Compound 32, 2-(4-Oxo-4H-quinazolin-3-yl)-N-[4-(thiazol-2-ylsulfamoyl)-phenyl]-acetamide]
EC50 [1]: > 25 µM

Cc1cc(C)nc(NS(=O)(=O)c2ccc(NC(=O)Cn3cnc4ccccc4c3=O)cc2)n1 [Compound 33, N-[4-(4,6-Dimethyl-pyrimidin-2-ylsulfamoyl)-phenyl]-2-(4-oxo-4H-quinazolin-3-yl)-acetamide]
EC50 [1]: > 25 µM

O=C(Cn1cnc2ccccc2c1=O)Nc1ccc(S(=O)(=O)N2CCOCC2)cc1 [Compound 34, N-[4-(Morpholine-4-sulfonyl)-phenyl]-2-(4-oxo-4H-quinazolin-3-yl)-acetamide]
EC50 [1]: > 25 µM

CCCCN(C)S(=O)(=O)c1ccc(NC(=O)Cn2cnc3ccccc3c2=O)cc1 [Compound 35, N-[4-(Butyl-methyl-sulfamoyl)-phenyl]-2-(4-oxo-4H-quinazolin-3-yl)-acetamide]
EC50 [1]: > 25 µM

CN(Cc1ccccc1)S(=O)(=O)c1ccc(NC(=O)Cn2cnc3ccccc3c2=O)cc1 [Compound 36, N-[4-(Benzyl-methyl-sulfamoyl)-phenyl]-2-(4-oxo-4H-quinazolin-3-yl)-acetamide]
EC50 [1]: > 25 µM

CC1CCCCN1S(=O)(=O)c1ccc(NC(=O)Cn2cnc3ccccc3c2=O)cc1 (stereo not drawn) [Compound 37, N-[4-(2-Methyl-piperidine-1-sulfonyl)-phenyl]-2-(4-oxo-4H-quinazolin-3-yl)-acetamide]
EC50 [1]: > 25 µM

NS(=O)(=O)c1ccc(NC(=O)Cn2cnc3ccccc3c2=O)cc1 [Compound 38, 2-(4-Oxo-4H-quinazolin-3-yl)-N-(4-sulfamoyl-phenyl)-acetamide]
EC50 [1]: > 25 µM

O=C(Cn1cnc2ccccc2c1=O)Nc1ccc(S(=O)(=O)Nc2ncccn2)cc1 [Compound 39, 2-(4-Oxo-4H-quinazolin-3-yl)-N-[4-(pyrimidin-2-ylsulfamoyl)-phenyl]-acetamide]
EC50 [1]: > 25 µM

O=C(Cn1cnc2ccccc2c1=O)Nc1ccc(S(=O)(=O)NCCCN2CCOCC2)cc1 [Compound 40, N-[4-(3-Morpholin-4-yl-propylsulfamoyl)-phenyl]-2-(4-oxo-4H-quinazolin-3-yl)-acetamide]
EC50 [1]: > 25 µM

O=C(Cn1cnc2ccccc2c1=O)Nc1ccc(S(=O)(=O)NCc2ccco2)cc1 [Compound 41, N-{4-[(Furan-2-ylmethyl)-sulfamoyl]-phenyl}-2-(4-oxo-4H-quinazolin-3-yl)-acetamide]
EC50 [1]: > 25 µM

CC(C)N(C)S(=O)(=O)c1ccc(NC(=O)Cn2cnc3ccccc3c2=O)cc1 [Compound 42, N-[4-(Isopropyl-methyl-sulfamoyl)-phenyl]-2-(4-oxo-4H-quinazolin-3-yl)-acetamide]
EC50 [1]: > 25 µM

CC(NS(=O)(=O)c1ccc(NC(=O)Cn2cnc3ccccc3c2=O)cc1)C1CC2CCC1C2 (stereo not drawn) [Compound 43, N-[4-(1-Bicyclo[2.2.1]hept-2-yl-ethylsulfamoyl)-phenyl]-2-(4-oxo-4H-quinazolin-3-yl)-acetamide]
EC50 [1]: > 25 µM

CC(C)NS(=O)(=O)c1ccc(NC(=O)Cn2cnc3ccccc3c2=O)cc1 [Compound 44, N-(4-Isopropyl-sulfamoyl-phenyl)-2-(4-oxo-4H-quinazolin-3-yl)-acetamide]
EC50 [1]: > 25 µM

CN1CCN(S(=O)(=O)c2ccc(NC(=O)Cn3cnc4ccccc4c3=O)cc2)CC1 [Compound 45, N-[4-(4-Methyl-piperazine-1-sulfonyl)-phenyl]-2-(4-oxo-4H-quinazolin-3-yl)-acetamide]
EC50 [1]: > 25 µM

CNS(=O)(=O)c1ccc(NC(=O)Cn2cnc3ccccc3c2=O)cc1 [Compound 46, N-(4-Methylsulfamoyl-phenyl)-2-(4-oxo-4H-quinazolin-3-yl)-acetamide]
EC50 [1]: > 25 µM

CC1CCN(S(=O)(=O)c2ccc(NC(=O)Cn3cnc4ccccc4c3=O)cc2)CC1 [Compound 47, N-[4-(4-Methyl-piperidine-1-sulfonyl)-phenyl]-2-(4-oxo-4H-quinazolin-3-yl)-acetamide]
EC50 [1]: > 25 µM

O=C(Cn1cnc2ccccc2c1=O)Nc1ccc(S(=O)(=O)NC2CCS(=O)(=O)C2)cc1 (stereo not drawn) [Compound 48, N-[4-(1,1-Dioxo-tetrahydro-1lambda*6*- thiophen-3-ylsulfamoyl)-phenyl]-2-(4-oxo-4H-quinazolin-3-yl)-acetamide]
EC50 [1]: > 25 µM

CN(C1CCCCC1)S(=O)(=O)c1ccc(NC(=O)Cn2cnc3ccccc3c2=O)cc1 [Compound 49, N-[4-(Cyclohexyl-methyl-sulfamoyl)-phenyl]-2-(4-oxo-4H-quinazolin-3-yl)-acetamide]
EC50 [1]: > 25 µM

CN(C)S(=O)(=O)c1ccc(NC(=O)Cn2cnc3ccccc3c2=O)cc1 [Compound 50, N-(4-Dimethylsulfamoyl-phenyl)-2-(4-oxo-4H-quinazolin-3-yl)-acetamide]
EC50 [1]: > 25 µM

O=C(Cn1cnc2ccccc2c1=O)Nc1ccc(S(=O)(=O)N2CCCCCC2)cc1 [Compound 51, N-[4-(Azepane-1-sulfonyl)-phenyl]-2-(4-oxo-4H-quinazolin-3-yl)-acetamide]
EC50 [1]: > 25 µM
